Experimental data taken from patent publication US5952307A, “Basic α-aminoalkylphosphonate derivatives” (priority 1997, dated 1999).

What was measured:
Assay type in all cases: biochemical
bovine trypsin = molecular target: T1, bovine trypsin (Bos taurus, UniProt P00760); experiment: Inactivation rate of bovine trypsin, incubation method; conditions: Table III; enzyme 0.06-0.5 μM, inhibitor 0.25-42 μM, 9% DMSO, 25° C.; NI = no inhibition
T1 sequence (P00760 24-246): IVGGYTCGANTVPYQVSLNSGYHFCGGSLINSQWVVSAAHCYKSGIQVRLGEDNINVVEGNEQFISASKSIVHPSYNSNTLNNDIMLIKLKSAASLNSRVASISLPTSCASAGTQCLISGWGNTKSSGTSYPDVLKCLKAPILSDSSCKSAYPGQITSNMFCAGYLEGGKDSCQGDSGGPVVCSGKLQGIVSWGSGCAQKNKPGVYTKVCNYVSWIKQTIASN

urokinase = urokinase (Homo sapiens, UniProt P00749); experiment: Inactivation rate of urokinase, incubation method; conditions: Table III; enzyme 0.06-0.5 μM, inhibitor 0.25-42 μM, 9% DMSO, 25° C.; NI = no inhibition
Protocol: (§1) Inactivation rates of serine proteases by aryl diesters of peptidyl derivatives of α-aminoalkylphosphonates were measured by the incubation method. An aliquot of inhibitor (25 or 50 μl) in Me2 SO was added to a buffered enzyme solution (0.01-2.3 μM) to initiate the inactivation. Aliquots (50 μl) were withdrawn at various intervals and the residual enzymatic activity was measured. Me2 SO concentration in the reaction mixture was 8-12% (v/v). A 0.1 M HEPES, 0.01 M CaCl2, pH 7.5 buffer was utilized for trypsin and trypsin-like enzymes. A 0.1 M HEPES, 0.5 M NaCl, pH 7.5, was utilized for the other serine proteases. Peptide thioesters or peptide nitroanilides with the appropriate sequences were used as substrates for various serine proteases. All peptide thioesters hydrolysis rates were measured with the assay mixture containing 4,4'-dithiodipyridine {ε324 =19800 M^-1 cm^-1; Grasetti & Murray, Arch. Biochem. Biophys. 1967, 119, 41-48}. Peptide 4-nitroanilide hydrolysis was measured at 410 nm {ε410 =8800 M^-1 cm^-1; Erlanger et al., Arch. Biochem. Biophys. 1961, 95, 271-278}. First order inactivation rate constants (Kobs) were obtained from plots of In vt /vo vs time, and the correlation coefficients were greater then 0.98.
(§2) ^a Enzyme (0.06-0.5 μM) was incubated with the inhibitor (0.25-42
(§3) μM) in 250 μL of the proper buffer containing 9% DMSO at 25°
(§4) C. The final inhibition reaction mixtures are given in the footnote to
(§5) Table 1. Aliquots of 25 μL were withdrawn at various intervals and the
(§6) residual enzymatic activity was measured as described in experimental
(§7) section. The kobs values were calculated from pseudofirst-order

human thrombin = molecular target: T2, human thrombin (Homo sapiens, UniProt P00734); conditions: Table III; enzyme 0.06-0.5 μM, inhibitor 0.25-42 μM, 9% DMSO, 25° C.; NI = no inhibition
T2 construct: bovine trypsin, human thrombin
In short: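 Irreversible inactivation followed by incubation method at 25 °C: 0.07 μM thrombin with 0.25–42 μM inhibitor in 80 mM Hepes pH 7.5, 428 mM NaCl, 8% DMSO. Residual activity of withdrawn aliquots measured with thioester or 4-nitroanilide substrates; kobs from pseudo-first-order fits.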

mast cell tryptase = mast cell tryptase (Homo sapiens, UniProt Q15661); experiment: Inactivation rate of mast cell tryptase, incubation method; conditions: Table III; enzyme 0.06-0.5 μM, inhibitor 0.25-42 μM, 9% DMSO, 25° C.; NI = no inhibition
In short: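 Incubation method at 25 °C: 0.07 μM tryptase with 20–66 μM inhibitor in Hepes pH 7.5 containing heparin, glycerol and DMSO. Aliquots were withdrawn at intervals for residual activity on Z-Arg-SBzl or Z-Lys-SBzl with DTNB. Pseudo-first-order kobs came from ln(vt/v0) versus time.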

plasmin = molecular target: T3, plasmin (Homo sapiens, UniProt P00747); experiment: Inactivation rate of plasmin, incubation method; conditions: Table III; for kobs /[I] plasmin: enzyme 0.06-0.5 μM, inhibitor 0.25-42 μM, 9% DMSO, 25° C., NI = no inhibition
T3 construct: factor Xa, plasmin, and urokinase
Protocol: as §1, §2, §3, §4, §5, §6, §7
^b Inhibitor concentration of 0.24 mM.

Sequence of mast cell tryptase (Q15661 31-275): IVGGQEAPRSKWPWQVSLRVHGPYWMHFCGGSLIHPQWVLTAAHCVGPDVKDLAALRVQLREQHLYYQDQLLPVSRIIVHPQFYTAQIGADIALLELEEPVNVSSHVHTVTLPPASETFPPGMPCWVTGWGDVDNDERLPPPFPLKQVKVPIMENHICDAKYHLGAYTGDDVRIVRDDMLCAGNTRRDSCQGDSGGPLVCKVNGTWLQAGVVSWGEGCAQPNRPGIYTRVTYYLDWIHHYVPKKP
T3 sequence (P00747 581-810 limits assumed, species assumed): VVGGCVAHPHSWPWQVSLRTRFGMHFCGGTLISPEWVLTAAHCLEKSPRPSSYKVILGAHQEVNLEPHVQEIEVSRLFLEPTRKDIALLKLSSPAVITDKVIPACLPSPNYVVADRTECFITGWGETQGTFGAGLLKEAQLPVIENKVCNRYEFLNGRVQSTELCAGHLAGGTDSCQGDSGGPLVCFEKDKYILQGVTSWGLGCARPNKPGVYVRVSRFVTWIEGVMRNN
T3 sequence (P00747 97-580 partner limits assumed, species assumed): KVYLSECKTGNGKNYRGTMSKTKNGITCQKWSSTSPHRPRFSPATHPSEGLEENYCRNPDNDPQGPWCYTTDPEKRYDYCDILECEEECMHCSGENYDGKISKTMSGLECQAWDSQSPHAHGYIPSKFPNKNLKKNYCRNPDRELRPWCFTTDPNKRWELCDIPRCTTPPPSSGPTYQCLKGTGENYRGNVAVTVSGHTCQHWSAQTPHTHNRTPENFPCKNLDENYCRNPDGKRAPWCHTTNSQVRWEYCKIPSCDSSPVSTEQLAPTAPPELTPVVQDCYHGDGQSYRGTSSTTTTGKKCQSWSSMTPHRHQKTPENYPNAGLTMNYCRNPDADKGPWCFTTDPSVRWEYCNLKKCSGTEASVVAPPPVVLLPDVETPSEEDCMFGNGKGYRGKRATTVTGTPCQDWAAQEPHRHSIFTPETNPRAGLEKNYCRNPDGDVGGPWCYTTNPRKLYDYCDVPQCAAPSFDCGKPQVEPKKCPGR

Compound | kobs /[I] bovine trypsin (bovine trypsin) | kobs /[I] urokinase (urokinase) | kobs /[I] human thrombin (human thrombin) | kobs /[I] mast cell tryptase (mast cell tryptase) | kobs /[I] plasmin (plasmin) | % Inh plasmin (plasmin; inhibitor concentration of 0.24 mM)
Cl.NCCCCC(NC(=O)[C@@H]1CCCN1C(=O)c1ccccc1Oc1ccccc1)P(=O)(Oc1ccccc1)Oc1ccccc1 (some centres unmarked) [2-Phenoxybenzoyl-Pro--Lys^P (OPh)2, Diphenyl 1-(N-(2-Phenoxybenzoylprolyl)amino)-5-aminopentanephosphonate Hydrochloride] | 16,411 ± 460 M^-1 s^-1 | 0.6 ± 0.1 M⁻¹ s⁻¹ | 4,531 ± 140 M^-1 s^-1 | 19 ± 1 M⁻¹ s⁻¹ | 7.1 ± 0.2 M⁻¹ s⁻¹ | –
Cl.NCCCCCC(NC(=O)[C@@H]1CCCN1C(=O)c1ccccc1Oc1ccccc1)P(=O)(Oc1ccccc1)Oc1ccccc1 (some centres unmarked) [2-Phenoxybenzoyl-Pro-HomoLys^P (OPh)2, Diphenyl 1-(N-(2-Phenoxybenzoylprolyl)amino)-6-aminohexanephosphonate Hydrochloride] | 69 ± 13 M⁻¹ s⁻¹ | 24 ± 4 M⁻¹ s⁻¹ | 57 ± 5 M⁻¹ s⁻¹ | 7.7 ± 0.3 M⁻¹ s⁻¹ | 3.6 ± 0.4 M⁻¹ s⁻¹ | –
NCCCCC(NC(=O)[C@@H]1CCCN1C(=O)CC(c1ccccc1)c1ccccc1)P(=O)(Oc1ccccc1)Oc1ccccc1 (some centres unmarked) [3,3-Diphenylpropanoyl-Pro--Lys^P (OPh)2] | 14,447 ± 905 M^-1 s^-1 | 1.5 ± 0.0 M⁻¹ s⁻¹ | 27,450 ± 803 M^-1 s^-1 | 74 ± 9 M⁻¹ s⁻¹ | 7.0 ± 0.2 M⁻¹ s⁻¹ | –
NCCCCCC(NC(=O)[C@@H]1CCCN1C(=O)CC(c1ccccc1)c1ccccc1)P(=O)(Oc1ccccc1)Oc1ccccc1 (some centres unmarked) [3,3-Diphenylpropanoyl-Pro-HomoLys^P (OPh)2] | 16 ± 1 M⁻¹ s⁻¹ | 2.1 ± 0.2 M⁻¹ s⁻¹ | 224 ± 8 M⁻¹ s⁻¹ | 1.1 ± 0.0 M⁻¹ s⁻¹ | – | 50%
Cl.NCCCCC(NC(=O)[C@@H]1CCCN1C(=O)c1cccc(Oc2ccccc2)c1)P(=O)(Oc1ccccc1)Oc1ccccc1 (some centres unmarked) [3-Phenoxybenzoyl-Pro--Lys^P (OPh)2, Diphenyl 1-(N-(3-Phenoxybenzoylprolyl)amino)-5-aminopentanephosphonate Hydrochloride] | 19,380 ± 300 M^-1 s^-1 | 1.6 ± 0.1 M⁻¹ s⁻¹ | 1,142 ± 52 M^-1 s^-1 | 16 ± 1 M⁻¹ s⁻¹ | 7.4 ± 0.6 M⁻¹ s⁻¹ | –
Cl.NCCCCCC(NC(=O)[C@@H]1CCCN1C(=O)c1cccc(Oc2ccccc2)c1)P(=O)(Oc1ccccc1)Oc1ccccc1 (some centres unmarked) [3-Phenoxybenzoyl-Pro-HomoLys^P (OPh)2, Diphenyl 1-(N-(3-Phenoxybenzoylprolyl)amino)-6-aminohexanephosphonate Hydrochloride] | 116 ± 34 M⁻¹ s⁻¹ | 22 ± 1 M⁻¹ s⁻¹ | 27 ± 5 M⁻¹ s⁻¹ | 10 ± 3 M⁻¹ s⁻¹ | 4.6 ± 0.1 M⁻¹ s⁻¹ | –
Cl.NCCCCC(NC(=O)OCc1ccccc1)P(=O)(Oc1ccccc1)Oc1ccccc1 (centres unmarked) [Cbz--Lys^P (OPh)2, Diphenyl N-(N-Benzyloxycarbonyl)amino(4-aminobutyl)methanephosphonate Hydrochloride] | 6,235 M^-1 s^-1 | 15 ± 2 M⁻¹ s⁻¹ | 17 M⁻¹ s⁻¹ | 17 ± 1 M⁻¹ s⁻¹ | 8.2 ± 0.4 M⁻¹ s⁻¹ | –
